From US20180311342A1, “IMMUNOSTIMULATING AGENT” (AJINOMOTO CO., INC., priority 2017, published 2018)

Columns and labels:
[1] = tested on: anti-OVA-specific IgE antibody; test: Allergy inducing activity test: anti-OVA-specific IgE antibody in serum of OVA-immunized mice (DS mouse IgE ELISA (OVA) kit); format: in vivo, BALB/c mice; conditions: for anti-OVA-specific IgE antibody production: Experimental Example 4: after secondary immunization, compound 0.256 μmol dissolved in saline (no αCD)
[2] = tested on: anti-OVA-specific IgG1 and IgG2a subclass antibody / anti-OVA-specific IgE antibody; test: Effective Index: index for adjuvant enhancing antibody production and not inducing allergy (IgG1 or IgG2a / IgE, relative to Addavax = 1.0); format: in vivo, BALB/c mice
Experimental: The serum samples obtained in Experimental Example 1 were evaluated for utilizability as an adjuvant to cause enhancement of antibody production by each compound and not induce allergy based on the following index (Effective Index). Whether each compound can be used as an adjuvant to cause enhancement of antibody production and not induce allergy was also evaluated in the same manner in the following Experimental Examples 2-10.
It is a problem that Addavax™ potentiates antigen-specific antibody production but induces allergy. Therefore, the index for adjuvant not inducing allergy (Effective Index) was defined as follows, and an index of each administration group in Experimental Examples 1-10 was calculated. That is, a value obtained by dividing mean of the concentrations of anti-OVA-specific IgG1 subclass antibody and anti-OVA-specific IgG2a subclass antibody of each group by mean of anti-OVA-specific IgE antibody concentration of each group was relatively compared with a value obtained by dividing mean of the concentrations of anti-OVA-specific IgG1 subclass antibody and anti-OVA-specific IgG2a subclass antibody of Addavax™ administration group by mean of anti-OVA-specific IgE antibody concentration of Addavax™ administration group as 1.0.

[3] = after secondary immunization, compound in 5% αCD-added saline, IgG1/IgE and IgG2a/IgE production amounts relative to Addavax administration group (1.0)

anti-OVA-specific IgE antibody production ([1]; compared to Addavax administration group)	anti-OVA-specific IgE antibody production ([1]; compared to OVA single administration group)	SMILES	allergy inducing activity as compared to Addavax ([1]; Experimental Example 4: conclusion from IgE after secondary immunization, compound dissolved in saline)	Effective Index ([2]; Experimental Example 4: after secondary immunization, compound dissolved in saline, IgG1/IgE and IgG2a/IgE relative to Addavax administration group (1.0))	Effective Index [2, 3]
lower	significantly increased	CCCCCCCCCCCCCCCC(=O)N[C@@H](CCCNC(=N)N)C(=O)NCCCCCCCCCCCC.Cl [SZ111, N-[(1S)-1-(dodecylcarbamoyl)-4-guanidino-butyl]hexadecanamide hydrochloride]	may have a lower allergy inducing activity	> 1.0	> 1.0
–	–	CCCCCCCCCCCCCCCC(=O)N[C@@H](CCCCN)C(=O)NCCCCCCCCCCCC.Cl [SZ153, N-[(1S)-5-amino-1-(dodecylcarbamoyl)pentyl]hexadecanamide hydrochloride]	–	–	> 1.0
